Experimental data reported in US11214803B2, “Modulators of YAP1 expression” (Ionis Pharmaceuticals, Inc., priority 2019, dated 2022).
Strand notation (5' to 3'): a small letter for the sugar, then the base; units joined by * are phosphorothioate-linked, units joined directly phosphodiester-linked; [ ] holds rarer units or linkages, { } end groups; capitals alone tell only the bases. k = constrained ethyl (cEt); [5mC] = 5-methylcytosine; d = 2'-deoxy (DNA)

What follows are substances tested on Yap1 mRNA (assay: Antisense inhibition of human Yap1 in A-431 cells by cEt gapmers, single dose (Example 3, RTS36584)). Conditions: Table 9; A-431 cells, 5,000 cells per well, free uptake, 2,000 nM, approximately 48 hours; RTS36584; normalized to RIBOGREEN; Yap1 mRNA relative to untreated control cells.
Assay type: cell-based
How it was run: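 A-431 cells (5,000/well) took up the 3-10-3 cEt gapmers by free uptake at 2,000 nM for about 48 h. Yap1 mRNA was measured by RT-qPCR with primer probe set RTS36584, normalized to RiboGreen total RNA, and given as % of untreated control.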

Substance	YAP1 (% UTC)
958741 (antisense kG*kT*kT*dA*d[5mC]*dT*dG*d[5mC]*dA*dA*d[5mC]*dT*dG*k[5mC]*k[5mC]*k[5mC]) [Compound 958741]	14 % UTC
958746 (antisense kG*kT*kT*dA*dT*d[5mC]*d[5mC]*dT*d[5mC]*dT*dA*dT*dA*kG*kT*k[5mC]) [Compound 958746]	22 % UTC
958751 (antisense kT*k[5mC]*kA*dA*dT*dG*d[5mC]*dA*dG*dG*dA*dT*dT*k[5mC]*k[5mC]*kA) [Compound 958751]	30 % UTC
958756 (antisense kG*kT*kG*dT*dT*dG*d[5mC]*dA*dT*dG*dA*d[5mC]*dA*kG*k[5mC]*k[5mC]) [Compound 958756]	15 % UTC

Same assay, conditions: Table 10; A-431 cells, 5,000 cells per well, free uptake, 2,000 nM oligonucleotide, approx. 48 hours; primer probe set RTS36584; Yap1 mRNA normalized to RIBOGREEN, percent of untreated control

Substance	YAP1 (% UTC)
958742 (antisense kA*kG*k[5mC]*dA*dA*dT*dA*dT*dG*dG*dT*dA*dT*kT*kA*kG) [Compound 958742]	4 % UTC
958747 (antisense kG*kT*kA*dA*dA*dG*dA*dG*dG*dG*dT*dG*dA*k[5mC]*kA*kT) [Compound 958747]	106 % UTC
958752 (antisense kG*kA*kA*dT*dT*dT*dT*dT*dA*dG*dT*d[5mC]*d[5mC]*kA*kG*kT) [Compound 958752]	2 % UTC
958757 (antisense kG*kT*kG*dA*dT*d[5mC]*dT*dG*d[5mC]*dA*d[5mC]*dA*dT*kT*kG*kT) [Compound 958757]	5 % UTC

Same assay, conditions: Table 11; A-431 cells, 5,000 cells per well, free uptake, 2,000 nM oligonucleotide, approx. 48 hours; primer probe set RTS36584; Yap1 mRNA normalized to RIBOGREEN, percent of untreated control

Substance	YAP1 (% UTC)
958738 (antisense kT*k[5mC]*kT*dA*dT*dA*dT*dG*dT*dT*dT*d[5mC]*d[5mC]*k[5mC]*k[5mC]*k[5mC]) [Compound 958738]	11 % UTC
958743 (antisense kG*kA*k[5mC]*dT*dA*dT*dA*dA*dA*dG*dG*dG*dT*kT*kT*kA) [Compound 958743]	30 % UTC
958748 (antisense kA*k[5mC]*kA*dT*dG*dT*dG*dA*d[5mC]*dA*dT*dT*d[5mC]*k[5mC]*kG*kG) [Compound 958748]	83 % UTC
958753 (antisense kT*kG*kT*dA*dT*dA*dT*dG*d[5mC]*d[5mC]*dG*dT*dT*k[5mC]*k[5mC]*k[5mC]) [Compound 958753]	4 % UTC

Same assay, conditions: Table 12; A-431 cells, 5,000 cells per well, free uptake, 2,000 nM modified oligonucleotide, approx. 48 hours; RTS36584; normalized to RIBOGREEN; Yap1 mRNA relative to untreated control cells

Substance	YAP1 (% UTC)
958739 (antisense kA*kG*k[5mC]*dA*dA*dT*dA*dG*dA*dG*dT*dA*dA*k[5mC]*k[5mC]*kA) [Compound 958739]	4 % UTC
958744 (antisense kG*k[5mC]*kA*dT*dA*d[5mC]*dT*dG*dG*dT*dG*d[5mC]*d[5mC]*k[5mC]*k[5mC]*kA) [Compound 958744]	45 % UTC
958749 (antisense k[5mC]*k[5mC]*kA*d[5mC]*dA*dA*dG*dG*dG*d[5mC]*dA*dG*dT*kA*k[5mC]*kG) [Compound 958749]	51 % UTC
958754 (antisense k[5mC]*k[5mC]*kT*dT*dA*dG*dG*dA*dA*dG*dG*d[5mC]*dT*k[5mC]*k[5mC]*k[5mC]) [Compound 958754]	31 % UTC

Same assay, conditions: Table 13; A-431 cells, 5,000 cells per well, free uptake, 2,000 nM modified oligonucleotide, approx. 48 hours; RTS36584; normalized to RIBOGREEN; Yap1 mRNA relative to untreated control cells

Substance	YAP1 (% UTC)
958740 (antisense k[5mC]*kG*kG*d[5mC]*dA*d[5mC]*d[5mC]*dA*dA*dA*d[5mC]*dA*d[5mC]*k[5mC]*k[5mC]*kA) [Compound 958740]	57 % UTC
958745 (antisense kT*k[5mC]*k[5mC]*d[5mC]*dA*dG*d[5mC]*d[5mC]*dG*d[5mC]*dA*dT*dG*kG*k[5mC]*kT) [Compound 958745]	78 % UTC
958750 (antisense kT*kG*kT*dA*dA*dG*dA*dG*dG*dA*dG*dA*d[5mC]*k[5mC]*kA*k[5mC]) [Compound 958750]	28 % UTC
958755 (antisense kT*kA*kA*d[5mC]*dA*dT*dA*dA*dG*dA*d[5mC]*dA*d[5mC]*kG*kG*kA) [Compound 958755]	12 % UTC
